The target of the assay is T1, human 5HT1A-serotonergic receptor (Homo sapiens, UniProt P08908).
T1 construct: expressed in transfected cells; host or cells: HeLa (human cell line), stably transfected; cell membranes used
T1 sequence (P08908 1-422): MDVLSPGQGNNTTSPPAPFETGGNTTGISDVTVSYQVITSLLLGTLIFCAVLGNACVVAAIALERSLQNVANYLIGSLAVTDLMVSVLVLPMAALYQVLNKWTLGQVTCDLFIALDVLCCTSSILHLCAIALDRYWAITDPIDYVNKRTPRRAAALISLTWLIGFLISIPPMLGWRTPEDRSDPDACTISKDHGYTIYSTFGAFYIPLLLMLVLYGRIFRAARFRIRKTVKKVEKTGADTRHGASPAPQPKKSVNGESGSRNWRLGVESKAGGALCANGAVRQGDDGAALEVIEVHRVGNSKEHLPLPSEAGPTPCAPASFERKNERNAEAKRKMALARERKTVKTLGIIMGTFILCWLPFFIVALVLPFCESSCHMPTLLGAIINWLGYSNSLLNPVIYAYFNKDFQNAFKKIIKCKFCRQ
Put plainly: Radioligand binding to recombinant 5-HT1A receptors. To be noted: [3H]8-OH-DPAT 1 nM, membranes of HeLa cells with human 5-HT1A receptor; Ki from IC50 by Cheng & Prusoff; read-out: Binding affinity for 5HT1A receptors, Ki. An outline of the steps: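 Displacement of 1 nM [3H]8-OH-DPAT (30 min, 30 °C, Tris-HCl pH 7.4 with MgCl2 and pargyline) from recombinant human 5-HT1A in transfected HeLa membranes, stopped by filtration. Specific binding defined against 10 μM 5-HT; IC50 by nonlinear fitting, then Ki by Cheng–Prusoff.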
In the case of `CN(CC(=O)N1c2ccccc2CCC1CN1CCN(c2cccc3[nH]ccc23)CC1)C(=O)c1ccccc1` (centres unmarked) [Example 68A46, 1-[1-[2-(N-Benzoyl-N-methylamino)acetyl]-1,2,3,4-tetrahydroquinoline-2-ylmethyl]-4-(4-indolyl)piperazine], the Ki is 0.0349 µM.
Turning to `O=C(C1CCCCC1)N1c2ccccc2CCC1CN1CCN(c2ccccn2)CC1` (centres unmarked) [Example 72A93, 1-(1-Cyclohexanecarbonyl-1,2,3,4-tetrahydroquinolin-2-ylmethyl)-4-(2-pyridyl)piperazine], the Ki was determined as 0.0078 µM.
As for `O=C(C1CCCCC1)N1c2ccccc2CCC1CN1CCC(c2ccccc2C(F)(F)F)CC1` (centres unmarked) [Example 72A81, 1-(1-Cyclohexanecarbonyl-1,2,3,4-tetrahydroquinolin-2-ylmethyl)-4-(2-trifluoromethylphenyl)piperidine], the figure is 0.0255 µM.
Next, `COc1ccccc1OCCN(C)CC1CCc2ccccc2N1C(=O)CC(C)(C)C` (centres unmarked) [Example 77A1, N-[1-(3,3-Dimethylbutanoyl)-1,2,3,4-tetrahydroquinolin-2-ylmethyl]-N-[2-(2-methoxyphenoxy)ethyl]methylamine]: 0.0242 µM; `O=C(c1ccsc1)N1c2ccccc2CCC1CN1CCN(c2cccc3[nH]ccc23)CC1` (centres unmarked) [Example 68A20, 1-(4-Indolyl)-4-[1-(3-thienylcarbonyl)-1,2,3,4-tetrahydroquinoline-2-ylmethyl]piperazine]: 0.0307 µM; `O=C(Cc1ccc(Cl)cc1)N1c2ccccc2CCC1CN1CCN(c2cccc3[nH]ccc23)CC1` (centres unmarked) [Example 68A30, 1-[1-[2-(4-Chlorophenyl)acetyl]-1,2,3,4-tetrahydroquinoline-2-ylmethyl]-4-(4-indolyl)piperazine]: 0.0238 µM.
Next, `COc1cc(F)ccc1N1CCN(CC2CCc3cc(C)ccc3N2C(=O)C2CCCCCC2)CC1` (centres unmarked) [Example 73A13, 1-(1-Cycloheptanecarbonyl-1,2,3,4-tetrahydroquinolin-6-methyl-2-ylmethyl)-4-(4-fluoro-2-methoxyphenyl)piperazine]: 0.0081 µM; `CC(C)CC(=O)N1c2ccccc2CCC1CN1CCN(c2nccc3ccccc23)CC1` (centres unmarked) [Example 75A, 1-(1-Isoquinolinyl)-4-[1-(3-methylbutanoyl)-1,2,3,4-tetrahydroquinolin-2-ylmethyl]piperazine]: 0.0032 µM.
Regarding `N#Cc1ccccc1N1CCN(CC2CCc3ccccc3N2C(=O)C2CCCCC2)CC1` (centres unmarked) [Example 72A13, 1-(2-Cyanophenyl)-4-(1-cyclohexanecarbonyl-1,2,3,4-tetrahydroquinolin-2-ylmethyl)piperazine], the Ki stood at 0.0078 µM.
As for “1-(4-Chloro-2-1-propoxyphenyl)-4-(1-cyclohexanecarbonyl-1,2,3,4-tetrahydroquinoline-2-ylmethyl)piperazine [Example 60A]”, the figure is 0.0101 µM.
Consider `O=C(C1CCCCC1)N1c2ccccc2CCC1CN1CCC(c2ccccc2Cl)CC1` (centres unmarked) [Example 72A69, 4-(2-Chlorophenyl)-1-(1-cyclohexanecarbonyl-1,2,3,4-tetrahydroquinolin-2-ylmethyl)piperidine], for which the Ki was found to be 0.0039 µM.
As for `O=C(C1CCCCC1)N1c2ccccc2CCC1CN1CCN(c2cccc(O)c2)CC1` (centres unmarked) [Example 72A17, 1-(1-Cyclohexanecarbonyl-1,2,3,4-tetrahydroquinolin-2-ylmethyl)-4-(3-hydroxyphenyl)piperazine], the figure is 0.0385 µM.
Next, `Cc1ccc(NC(=O)N2c3ccccc3CCC2CN2CCN(c3cccc4[nH]ccc34)CC2)cc1` (centres unmarked) [Example 69A3, 1-(4-Indolyl)-4-[1-(4-methylphenylaminocarbonyl)-1,2,3,4-tetrahydroquinoline-2-ylmethyl]piperazine]: 0.0093 µM; `COc1cc(F)ccc1N1CCN(CC2CCc3cc(C)ccc3N2C(=O)CC2CCCCC2)CC1` (centres unmarked) [Example 73A6, 1-(1-Cyclohexylacetyl-1,2,3,4-tetrahydroquinolin-6-methyl-2-ylmethyl)-4-(4-fluoro-2-methoxyphenyl)piperazine]: 0.0181 µM; `O=C(C1CCCCC1)N1c2ccccc2CCC1CN1CCN(c2ccc(F)cc2[N+](=O)[O-])CC1` (centres unmarked) [Example 72A7, 1-(1-Cyclohexanecarbonyl-1,2,3,4-tetrahydroquinolin-2-ylmethyl)-4-(4-fluoro-2-nitrophenyl)piperazine]: 0.0046 µM.
Next, `O=C(C1CCCCC1)N1c2ccccc2CCC1CN1CCN(c2ccccc2OCC(F)(F)F)CC1` (centres unmarked) [Example 4, 1-(1-Cyclohexanecarbonyl-1,2,3,4-tetrahydroquinoline-2-ylmethyl)-4-[2-(2,2,2-trifluoroethoxy)phenyl]piperazine]: 0.0007 µM.
On to `O=C(CCc1cccnc1)N1c2ccccc2CCC1CN1CCN(c2cccc3[nH]ccc23)CC1` (centres unmarked) [Example 68A41, 1-(4-Indolyl)-4-[1-[3-(3-pyridylpropionyl)]-1,2,3,4-tetrahydroquinoline-2-ylmethyl]piperazine], for which the Ki was found to be 0.0491 µM.
Next, `CCc1ccccc1N1CCN(CC2CCc3ccccc3N2C(=O)C2CCCCC2)CC1` (centres unmarked) [Example 72A11, 1-(1-Cyclohexanecarbonyl-1,2,3,4-tetrahydroquinolin-2-ylmethyl)-4-(2-ethylphenyl)piperazine]: 0.0077 µM; `O=C(CCc1ccccc1)N1c2ccccc2CCC1CN1CCN(c2cccc3[nH]ccc23)CC1` (centres unmarked) [Example 68A24, 1-(4-Indolyl)-4-[1-(3-phenylpropionyl)-1,2,3,4-tetrahydroquinoline-2-ylmethyl]piperazine]: 0.0329 µM.
With `O=C(c1ccc[nH]1)N1c2ccccc2CCC1CN1CCN(c2cccc3c2OCCO3)CC1` (centres unmarked) [Example 76A2, 1-(2,3-Dihydrobenzo[1,4]dioxin-5-yl)-4-[1-(2-pyrrolylcarbonyl)-1,2,3,4-tetrahydroquinolin-2-ylmethyl]piperazine], the Ki came out at 0.0051 µM.
As to `CS(=O)(=O)N(CC(=O)N1c2ccccc2CCC1CN1CCN(c2cccc3[nH]ccc23)CC1)Cc1ccccc1` (centres unmarked) [Example 68A71, 1-[1-[2-(N-Benzyl-N-methanesulphonylamino)acetyl]-1,2,3,4-tetrahydroquinoline-2-ylmethyl]-4-(4-indolyl)piperazine], the Ki came out at 0.0235 µM.
On to `CC(C)NC(=O)N1c2ccccc2CCC1CN1CCN(c2cccc3[nH]ccc23)CC1` (centres unmarked) [Example 69A7, 1-(4-Indolyl)-4-[1-(1-methylethylaminocarbonyl)-1,2,3,4-tetrahydroquinoline-2-ylmethyl]piperazine], for which the Ki is 0.036 µM.
Next, `O=C(C1CCCCC1)N1c2ccc(OC(F)(F)F)cc2CCC1CN1CCN(c2cccc3[nH]ccc23)CC1` (centres unmarked) [Example 26, 1-(1-Cyclohexanecarbonyl-6-trifluoromethoxy-1,2,3,4-tetrahydroquinoline-2-ylmethyl)-4-(4-indolyl)piperazine]: 0.0479 µM.
As for `CN(CCOc1cccc2cccnc12)CC1CCc2ccccc2N1C(=O)C1CCCCC1` (centres unmarked) [Example 72A87, N-(1-Cyclohexanecarbonyl-1,2,3,4-tetrahydroquinolin-2-ylmethyl)-2-(8-quinolyloxy)ethylmethylamine], the figure is 0.0039 µM; as for `O=C(c1ccncc1)N1c2ccccc2CCC1CN1CCN(c2cccc3[nH]ccc23)CC1` (centres unmarked) [Example 68A34, 1-(4-Indolyl)-4-[1-(4-pyridylcarbonyl)-1,2,3,4-tetrahydroquinoline-2-ylmethyl]piperazine], 0.0249 µM; as for `C[C@@H](NC(=O)N1c2ccccc2CCC1CN1CCN(c2cccc3[nH]ccc23)CC1)c1ccccc1` (single isomer, unassigned) [Example 69A5], 0.0157 µM.
As to `O=C(C1CCCCC1)N1c2ccccc2CCC1CN1CCN(c2cccc(Cl)c2Cl)CC1` (centres unmarked) [Example 72A8, 1-(1-Cyclohexanecarbonyl-1,2,3,4-tetrahydroquinolin-2-ylmethyl)-4-(2,3-dichlorophenyl)piperazine], the inhibition constant (Ki) worked out at 0.0316 µM.
For `N#Cc1ccc(C(=O)N2c3ccccc3CCC2CN2CCN(c3cccc4c3OCCO4)CC2)cc1` (centres unmarked) [Example 76A5, 1-[1-(4-Cyanobenzoyl)-1,2,3,4-tetrahydroquinolin-2-ylmethyl]-4-(2,3-dihydrobenzo[1,4]dioxin-5-yl)piperazine], the Ki is 0.0124 µM.
Next, `O=C(c1ccco1)N1c2ccccc2CCC1CN1CCN(c2nccc3ccccc23)CC1` (centres unmarked) [Example 75A4, 1-[1-(2-Furancarbonyl)-1,2,3,4-tetrahydroquinolin-2-ylmethyl]-4-(1-isoquinolinyl)piperazine]: 0.0146 µM; `O=C(Cc1ccccc1)N1c2ccccc2CCC1CN1CCN(c2cccc3[nH]ccc23)CC1` (centres unmarked) [Example 68A2, 1-(4-Indolyl)-4-[1-(2-phenylacetyl)-1,2,3,4-tetrahydroquinoline-2-ylmethyl]piperazine]: 0.0139 µM.
Next, `O=C(Cc1ccsc1)N1c2ccccc2CCC1CN1CCN(c2cccc3c2OCCO3)CC1` (centres unmarked) [Example 76A7, 1-(2,3-Dihydrobenzo[1,4]dioxin-5-yl)-4-[1-[2-(3-thienyl)acetyl]-1,2,3,4-tetrahydroquinolin-2-ylmethyl]piperazine]: 0.0085 µM.
Next, `O=C(c1ccc[nH]1)N1c2ccccc2CCC1CN1CCN(c2cccc3[nH]ccc23)CC1` (centres unmarked) [Example 68A, 1-(4-Indolyl)-4-[1-(2-pyrrolylcarbonyl)-1,2,3,4-tetrahydroquinoline-2-ylmethyl]piperazine]: 0.0092 µM.
